Assay results taken from patent publication US20240350411A1, “METHODS FOR PREPARING LIPOSOMAL FORMULATIONS” (Celator Pharmaceuticals, Inc., priority 2021, published 2024).

Assay: Removal of free drug during purification with acidified sugar solution: concentration in the permeate
From the text: Without being bound by theory, it is surmised that encapsulation of therapeutic agents into liposomes results in some portion of the therapeutic agent becoming associated with or trapped within the lipid bilayer, particularly when encapsulating therapeutic agents with low water solubility or high hydrophobicity. Purifying the liposomal composition with an acidified aqueous solution may remove therapeutic agent that is associated with or trapped within the lipid bilayer, resulting in a liposome formulation that contains a therapeutic agent that is only encapsulated within the internal medium of the liposomes. […] As the washing volume increases—that is, as the liposomal composition is washed with an increasing amount of acidified aqueous sugar solution—the amount of Compound 9 detected in the permeate peaks, and then decreases. The peak is thought to result from a rapid release of Compound 9 that is associated with or trapped in the lipid bilayer into the acidified aqueous sugar solution. […] In other words, purifying the liposomal composition with an acidified aqueous solution may allow for any therapeutic agent merely associated with or trapped within the lipid bilayer to release into the acidified aqueous solution, thus preventing a rapid release from occurring in the bloodstream of a patient upon administration.
A formulation of liposomes containing Compound 9 was prepared and purified as described in Examples 1A, 1B, and 2. The liposome formulation comprised DSPC/Cholesterol/PEGylated (58/40/2 mol %) and used 250 mM AS as the loading aid.
During the purification of the formulation using tangential flow filtration, the concentration of Compound 9 in the permeate was measured, as shown below in Table 7. FIG. 3 depicts the concentration of Compound 9 in the permeate vs. the washing volume.

Question: What does the source list for CCN(CC)C1CCN(CC[C@H](CSc2ccccc2)Nc2ccc(S(=O)(=O)NC(=O)c3ccc(N4CCN(CC5=C(c6ccc(Cl)cc6)CCC(C)(C)C5)CC4)cc3)cc2S(=O)(=O)C(F)(F)F)CC1 [Compound 9]?
Answer: Compound 9 detected in the permeate (after washing with about 300-400 mL of acidified aqueous sugar solution (FIG. 3)): little; Concentration of Compound x in the permeate (washing volume 1×): 7100 ng/mL; Concentration of Compound x in the permeate (washing volume 3×): 15900 ng/mL; Concentration of Compound x in the permeate (washing volume 6×): 3500 ng/mL; Concentration of Compound x in the permeate (washing volume 9×): 1400 ng/mL; Concentration of Compound x in the permeate (washing volume 12×): 1000 ng/mL
